# Assay results: patent US20070270350A1, “Methods and Compositions for the Prevention and Treatment of Inflammatory Diseases or Conditions” (MUSC FOUNDATION FOR RESEARCH DEVELOPMENT, priority 2003, published 2007)
# Assays:
# ERK1/2 = ERK1/2 phosphorylation by immunoblot after LPS/IFN; format: cell-based, rat; conditions: D-PDMP pretreatment; LPS/IFN 20 minutes
# Procedure: (§1) Western Blot Analysis. For iNOS protein, the cells were washed with cold Tris buffered saline (TBS; 20 mM Trizma base, and 137 mM NaCl, pH 7.5), lysed in 1×SDS sample loading buffer (62.5 mM Trizma base, 2% w/v SDS, 10% glycerol), following sonication and centrifugation at 1,5000×g for 5 min, the supernatant was used for the iNOS western immunoblot assay. The protein concentration of samples was determined with the detergent compatible protein assay reagent (Bio-Rad Laboratories, CA) using bovine serum albumin (BSA) as the standard. Sample was boiled for 3 min with 0.1 volumes of 10% O-mercaptoethanol and 0.5% bromophenol blue mix. Fifty μg of total cellular protein was resolved by electrophoresis in 8 or 12% polyacrylamide gels, electro-transferred to polyvinylidene difluoride (PVDF) filter and blocked with Tween 20 containing Tris-buffered saline [TBST; 10 mM Trizma base (pH 7.4), 1% Tween 20, and 150 mM NaCl] with 5% skim milk. After incubation with antiserum against iNOS (BD PharMingen, CA), or hRas (Upstate Biotechnology, CA), or phospho-specific MAPK (p42/44) (Signal Transduction), in PVDF buffer for 2 h at room temperature, the filters were washed 3 times with TBST buffer and then incubated with horseradish peroxidase conjugated anti-rabbit or mouse IgG for 1 h. The membranes were autoradiographed by using ECL-plus (Amersham Pharmacia Biotech) after washing with TBST buffer.
# [1] = cited from earlier work
# [2] = molecular target: T1, lactosylceramide synthase (GalT-2) (Rattus norvegicus, UniProt O88419); test: Measurement of lactosylceramide synthesis in primary astrocytes; format: cell-based; conditions: D-PDMP pretreatment 0.5 hr; 14C-galactose labelling, HPTLC
# T1 construct: endogenous in cells; host or cells: primary astrocytes
# T1 sequence (O88419 1-382): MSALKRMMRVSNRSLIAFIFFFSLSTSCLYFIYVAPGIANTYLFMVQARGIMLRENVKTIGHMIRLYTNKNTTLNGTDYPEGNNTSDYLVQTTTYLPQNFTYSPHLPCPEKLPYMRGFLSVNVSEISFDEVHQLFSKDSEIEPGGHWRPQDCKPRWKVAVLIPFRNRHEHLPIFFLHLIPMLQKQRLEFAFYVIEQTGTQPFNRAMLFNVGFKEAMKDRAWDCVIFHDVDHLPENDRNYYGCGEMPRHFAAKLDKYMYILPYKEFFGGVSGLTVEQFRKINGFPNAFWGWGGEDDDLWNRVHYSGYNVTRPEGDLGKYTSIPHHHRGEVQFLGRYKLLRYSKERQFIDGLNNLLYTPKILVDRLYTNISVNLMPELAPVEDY
# Procedure: Measurement of lactosylceramide synthesis. Cultured cells were incubated in growth medium containing [^14C] galactose (5 ? Ci/ml) for 24 h as described previously. The medium was removed, and the cell monolayer was washed with sterile PBS to remove nonspecifically adsorbed radioactivity and fresh serum free medium was added. After the stimulation of cells with LPS/IFN ? (1 ? g/ml; 10 U/ml) for various durations cells were then harvested and washed with ice cold PBS and lysed by sonication. Following protein quantification, […] of protein was used for extraction of lipids using Chloroform:Methanol:HCl (100:100:1). The organic phase was dried under nitrogen. Glycosphingolipids were resolved by high performance thin layer chromatography using chloroform/methanol/0.25% KCl (70:30:4, v/v/v) as the developing solvent. The chromatographic plate was dried in air and stained with iodine vapors. The gel area corresponding to LacCer was scraped, and radioactivity was measured employing “liquiscint” (NEN Life Science Products) as a scintillating fluid.
# NF-κB = NF-κB reporter, gel shift and IκB phosphorylation after LPS/IFN; format: cell-based, rat
# Procedure: as §1
# Nuclear Extraction and Electrophoretic mobility shift assay. Nuclear extracts from cells (1×10^7 cells) were prepared using previously published method (Dignam et al., 1983) with slight modification. Cells were harvested, washed twice with ice-cold TBS, and lysed in 400 μl of buffer A containing, 10 mM KCl, 2 mM MgCl2, 0.5 mM dithiothreitol, protease inhibitor cocktail (Sigma), and 0.1% Nonidet P40 in 10 mM HEPES, pH 7.9 for 10 min on ice. Following centrifugation at 5,000×g for 10 min, the pelleted nuclei were washed with buffer A without Nonidet P40, and re-suspended in 40 μl of buffer B containing 25% (v/v) glycerol, 0.42 M NaCl, 1.5 mM MgCl2, 0.2 mM EDTA, 0.5 mM dithiothreitol, and Complete™ protease inhibitor cocktail (Roche) in 20 mM HEPES, pH7.9 for 30 min on ice. The lysates were centrifuged at 15,000×g for 15 min and the supernatants containing the nuclear proteins were stored at −70° C. until use. Ten μg of nuclear proteins was used for the electrophoretic mobility shift assay for detection of AP-1, NFκB, and C/EBP DNA binding activities. DNA-protein binding reactions were carried out at room temperature for 20 min in 10 mM Trizma base (pH 7.9), 50 mM NaCl, 5 mM MgCl2, 1 mM EDTA, 1 mM dithiothreitol, 1 μg poly (dl-dC), 5% (v/v) glycerol, and approximately 0.3 pmol of NFκB (Santa Cruz Biotech) labeled with DIG-ddUTP using terminal deoxynucleotidyl transferase (Roche). Protein-DNA complexes were resolved from protein-free DNA in 5% polyacrylamide gels at room temperature in 50 mM Tris, pH 8.3, 0.38 M glycine, and 2 mM EDTA, and electroblotted onto positively charged nylon membranes. The chemiluminescence detection method for DIG-labeled probes is identical to the method described for the non-isotopic northern blot analysis in the preceding.
# Transient Transfections and Reporter Gene Assay. 3×10^5 cells/well were cultured in 6-well plates for one day before the transfection. Transfection was performed with plasmid concentration constant (2.5 μg/transfection) and 8 μl of Fugene transfection reagent (Roche Molecular Biochemicals). One day after transfection, the cells were placed in serum free media for overnight. Following appropriate treatment, the cells were washed with phosphate buffered saline (PBS), scrapped, and then resuspended with 100 μl of lysis buffer (40 mM of Tricine pH 7.8, 50 mM of NaCl, 2 mM of EDTA, 1 mM of MgSO4, 5 mM of dithiothreitol, and 1% of Triton X-100). After incubation in room temperature for 15 min with occasional vortexing, the samples were centrifuged. […]
smiles,measurement,setting,value
"CCCCCCCCCC(=O)NC(CN1CCOCC1)C(O)c1ccccc1.Cl [D-PDMP, D-threo-1-Phenyl-2-decanoylamino-3-morpholino-1-propanol HCl]",LPS/IFN induced phosphorylation of ERK 1/2,ERK1/2,inhibited
same,solubility in water,[1],soluble
same,increase in LacCer biosynthesis following LPS/IFN stimulation,[2],inhibited this increase
same,LPS/IFN induced luciferase activity (κB-repeat luciferase),NF-κB; D-PDMP 0.5 hr before LPS/IFN,abolished
same,phosphorylation of IκB,NF-κB; in the presence of D-PDMP,Decreased
same,NF-κB DNA binding activity (electrophoresis mobility shift assay),"NF-κB; increasing doses of D-PDMP, LPS/IFN 45 minutes",inhibited
